Laboratory results reported in the CheMixHub drug solubility set.

Experiment: xn = mol fraction of the nth substance listed, in the solute-free solvent

O=C1NS(=O)(=O)c2ccccc21 + CC#N + CCO
solubility (g/100 g solution)
Conditions | x2 = 0.0999 | x2 = 0.2002 | x2 = 0.2997 | x2 = 0.3998 | x2 = 0.5002 | x2 = 0.5999 | x2 = 0.7001 | x2 = 0.7999 | x2 = 0.8999
293.15 K | 5.33 | 7.27 | 8.67 | 9.52 | 9.7 | 9.58 | 8.96 | 7.58 | 5.52
298.15 K | 5.91 | 7.97 | 9.45 | 10.3 | 10.7 | 10.6 | 9.85 | 8.34 | 6.08
303.15 K | 6.8 | 9.11 | 10.7 | 11.7 | 12.1 | 11.9 | 11.1 | 9.45 | 6.93
308.15 K | 7.49 | 9.96 | 11.7 | 12.7 | 13.5 | 13.2 | 12.3 | 10.5 | 7.63
313.15 K | 8.72 | 11.5 | 13.3 | 14.4 | 14.8 | 14.6 | 13.6 | 11.7 | 8.61
318.15 K | 10.1 | 13.2 | 15.3 | 16.5 | 16.8 | 16.7 | 15.4 | 13.3 | 9.87
323.15 K | 11.4 | 14.7 | 16.9 | 18.1 | 18.5 | 18.2 | 17 | 14.6 | 10.9

CN1CCN(C(=O)OC2c3nccnc3C(=O)N2c2ccc(Cl)cn2)CC1 (centres undefined) + CC#N + O
solubility (g/100 g solution)
Conditions | x2 = 0.3 | x2 = 0.4 | x2 = 0.5 | x2 = 0.6 | x2 = 0.7 | x2 = 0.8 | x2 = 0.9
288.15 K | 0.593 | 1.13 | 2.08 | 2.78 | 3.27 | 3.38 | 2.87
298.15 K | 0.785 | 1.72 | 2.61 | 3.38 | 4.09 | 4.14 | 3.55
308.15 K | 0.997 | 2.11 | 3.4 | 4.41 | 5.3 | 5.38 | 4.63
318.15 K | 1.26 | 2.67 | 4.26 | 5.76 | 6.74 | 7.02 | 6.08
328.15 K | 1.77 | 3.23 | 5.56 | 7.47 | 8.64 | 8.93 | 8.18

COC(=O)C1=C(C)NC(C)=C(C(=O)OCC(C)C)C1c1ccccc1[N+](=O)[O-] (centres undefined) + CC#N + O
solubility (g/100 g solution)
Conditions | 278.15 K | 283.15 K | 288.15 K | 293.15 K | 298.15 K | 303.15 K | 308.15 K | 313.15 K | 318.15 K
x2 = 0.04651 | 0.165 | 0.218 | 0.288 | 0.377 | 0.488 | 0.61 | 0.767 | 0.973 | 1.21
x2 = 0.0989 | 0.678 | 0.855 | 1.1 | 1.36 | 1.7 | 2.08 | 2.53 | 3.12 | 3.73
x2 = 0.1583 | 1.3 | 1.62 | 2.02 | 2.51 | 3.07 | 3.73 | 4.57 | 5.46 | 6.5
x2 = 0.2264 | 2.08 | 2.58 | 3.1 | 3.86 | 4.65 | 5.62 | 6.61 | 7.85 | 9.2
x2 = 0.3051 | 2.84 | 3.54 | 4.32 | 5.15 | 6.3 | 7.5 | 8.79 | 10.4 | 12.1
x2 = 0.397 | 3.75 | 4.65 | 5.65 | 6.7 | 8.1 | 9.55 | 11.2 | 13.1 | 15.2
x2 = 0.506 | 4.72 | 5.77 | 6.86 | 8.3 | 9.96 | 11.8 | 13.7 | 15.7 | 18
x2 = 0.6372 | 5.69 | 6.77 | 8.36 | 9.95 | 11.7 | 13.6 | 15.7 | 18.2 | 20.7
x2 = 0.798 | 6.56 | 7.83 | 9.45 | 11.2 | 13.1 | 15.2 | 17.6 | 20.2 | 22.9
